SMILES strings stand for the structures.

For this test, the target named is human PCSK9 (Homo sapiens, UniProt Q8NBP7). The test can be described thus: PCSK9 ligand binding assay (TR-FRET): interference with binding of human PCSK9 to human LDLR. The settings on record: for IC50: Human PCSK9 Alexa Fluor 647 / Human LDLR extracellular domain-Europium Kryptate; for Max % inhibition: efficacy (Amax), 100% = 1 uM unlabeled human PCSK9, 0% = DMSO. The essentials:
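Read-out was TR-FRET ratio (665 nm over 615 nm, 330 nm excitation) between Alexa Fluor 647-human PCSK9 (16 nM added) and Europium Kryptate-human LDLR ectodomain (4 nM added). Compound and PCSK9 were mixed 30 min before LDLR, then incubated 2 h. Inhibition was normalised to DMSO and unlabelled-PCSK9 controls, giving IC50 and Amax.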
For orientation: In TR-FRET formats the signal depends on donor and acceptor labels being close together.

human PCSK9, sequence (Q8NBP7 153-692): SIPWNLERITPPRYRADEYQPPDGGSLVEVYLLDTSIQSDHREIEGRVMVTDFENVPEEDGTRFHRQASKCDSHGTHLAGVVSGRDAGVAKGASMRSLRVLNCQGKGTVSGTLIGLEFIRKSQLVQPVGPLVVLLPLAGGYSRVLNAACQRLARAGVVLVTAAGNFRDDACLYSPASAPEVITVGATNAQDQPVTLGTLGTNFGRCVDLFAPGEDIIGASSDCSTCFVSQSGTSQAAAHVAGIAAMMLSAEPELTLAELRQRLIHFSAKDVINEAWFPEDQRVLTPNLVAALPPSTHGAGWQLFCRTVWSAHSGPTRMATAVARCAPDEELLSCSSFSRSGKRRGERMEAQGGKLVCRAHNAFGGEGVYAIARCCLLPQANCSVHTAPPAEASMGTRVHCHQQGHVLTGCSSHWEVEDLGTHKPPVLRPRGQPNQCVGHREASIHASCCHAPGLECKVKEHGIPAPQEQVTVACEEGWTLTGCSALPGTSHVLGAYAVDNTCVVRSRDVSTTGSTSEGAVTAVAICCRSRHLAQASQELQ
human PCSK9, sequence (Q8NBP7 31-152 partner limits assumed): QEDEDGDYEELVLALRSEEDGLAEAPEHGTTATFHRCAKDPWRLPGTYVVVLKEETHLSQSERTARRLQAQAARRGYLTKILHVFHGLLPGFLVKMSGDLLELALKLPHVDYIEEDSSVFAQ

Broadly, the IC50 is the point on the concentration scale where inhibition reaches its midpoint. Higher therefore signals lower potency. For `COC[C@@H]1NC(=O)[C@H](C)N(Cc2c(F)cc(Cl)cc2Oc2ccc(-n3cnc(CN4CCCC4)c3C)cc2)C(=O)C[C@@H](Cc2ccccc2)C(=O)N2CCC[C@@](Cc3ccc(Cl)cc3)(C2)NC1=O` [Compound 39, (3R, 7S, 10S, 13R)-3-benzyl-6-(4-chloro-2-fluoro-6-(4-(5-methyl-4-(pyrrolidin-1-ylmethyl)-1H-imidazol-1-yl)phenoxy)benzyl)-13-(4-chlorobenzyl)-10-(methoxymethyl)-7-methyl-1,6,9,12-tetraazabicyclo[11.3.1]heptadecane-2,5,8,11-tetraone], the IC50 was 383 pM and the Max % inhibition was 113.2%.

With `C/C=C/C[C@@H]1CC(=O)N(Cc2ccc(Cl)cc2Oc2ccc(-c3cnc(CN(C)C)n3C)cc2)[C@@H](C)C(=O)N[C@@H](CO)C(=O)N[C@@]2(Cc3ccc(Cl)cc3)CCCN(C2)C1=O` [Compound 40, (3R,7S,10S,13R)-3-((E)-but-2-en-1-yl)-6-(4-Chloro-2-(4-(2-((dimethylamino)methyl)-1-methyl-1H-imidazol-5-yl)phenoxy)benzyl)-13-(4-chlorobenzyl)-10-(hydroxymethyl)-7-methyl-1,6,9,12-tetraazabicyclo[11.3.1]heptadecane-2,5,8,11-tetraone], the IC50 was 600 pM and the Max % inhibition is recorded as 107.8%.

Take `Cc1cccc(C[C@@H]2CC(=O)N(Cc3ccc(Cl)cc3Oc3ccc(-c4cnc(CN(C)C)n4C)cc3)[C@@H](C)C(=O)N[C@@H](CO)C(=O)N[C@@]3(Cc4ccc(Cl)cc4)CCCN(C3)C2=O)n1` [Compound 41, (3R, 7S, 10S, 13R)-6-(4-chloro-2-(4-(2-((dimethylamino)methyl)-1-methyl-1H-imidazol-5-yl)phenoxy)benzyl)-13-(4-chlorobenzyl)-10-(hydroxymethyl)-7-methyl-3-((6-methylpyridin-2-yl)methyl)-1,6,9,12-tetraazabicyclo[11.3.1]heptadecane-2,5,8,11-tetraone]: the IC50 stood at 556 pM and the Max % inhibition came to 105.9%.

Take `C[C@H]1C(=O)N[C@@H](CO)C(=O)N[C@@]2(Cc3ccc(Cl)cc3)CCCN(C2)C(=O)[C@H](CC2CC2)CC(=O)N1Cc1ccc(Cl)cc1Oc1ccc(-c2cnc(CN(C)C)n2C)cc1` [Compound 42, (3R, 7S, 10S, 13R)-6-(4-chloro-2-(4-(2-((dimethylamino)methyl)-1-methyl-1H-imidazol-5-yl)phenoxy)benzyl)-13-(4-chlorobenzyl)-3-(cyclopropylmethyl)-10-(hydroxymethyl)-7-methyl-1,6,9,12-tetraazabicyclo[11.3.1]heptadecone-2,5,8,11-tetraone]: the IC50 came out at 596 pM and the Max % inhibition amounted to 108.3%.

For the compound `C[C@H]1C(=O)N[C@@H](CO)C(=O)N[C@@]2(Cc3ccc(Cl)cc3)CCCN(C2)C(=O)[C@H](Cc2ccccc2)CC(=O)N1Cc1ccc(Cl)cc1Oc1ccc(-c2cnc(CN(C)C)n2C)c(F)c1` [Compound 43, (3R, 7S, 10S, 13R)-3-benzyl-6-(4-chloro-2-(4-(2-((dimethylamino)methyl)-1-methyl-1H-imidazol-5-yl)-3-fluorophenoxy)benzyl)-13-(4-chlorobenzyl)-10-(hydroxymethyl)-7-methyl-1,6,9,12-tetraazabicyclo[11.3.1]heptadecane-2,5,8,11-tetraone], the half-maximal inhibitory concentration (IC50) came out at 405 pM and the Max % inhibition turned out to be 110.0%.

Regarding `COC[C@@H]1NC(=O)[C@H](C)N(Cc2ccc(Cl)cc2Oc2ccc(-c3cnc(CN(C)C)n3C)cc2)C(=O)C[C@@H](Cc2cccc(=O)n2C)C(=O)N2CCC[C@@](Cc3ccc(Cl)cc3)(C2)NC1=O` [Compound 44], the IC50 was found to be 1180 pM and the Max % inhibition is recorded as 105.2%.

(Values after US11813306B2, “Cyclic tetramer compounds as proprotein convertase subtilisin/kexin type 9 (PCSK9) inhibitors for the treatment of metabolic disorders” (NOVARTIS AG, priority 2018, dated 2023).)
